Data from US20230277427A1, “COOLING SENSATION COMPOSITIONS” (GIVAUDAN SA, priority 2020, published 2023).

Key:
[1] = Solubility of compounds of formula (I) in different solvents (Example A); format: physicochemical; conditions: for in the fridge (precipitation): about 4° C. over night; for solubility @ RT: weight % of compound
Protocol: Into a 20 ml vial 0.4 g of 2-methyl-1-(2-(5-(p-tolyl)-1H-imidazol-2-yl)piperidin-1-yl)butan-1-one (white solid) have been added followed by the addition of 1.6 g of the respective solvent as indicated in Table 1 below. The vial was warmed to about 50° C. with gentle agitation for 1 hour. If 2-methyl-1-(2-(5-(p-tolyl)-1H-imidazol-2-yl)piperidin-1-yl)butan-1-one hasn't dissolved, 2 g of the respective solvent was added (resulting in a composition comprising 10 weight % of a compound of formula (I)), and again gentle agitated for an additional hour at about 50° C. If 2-methyl-1-(2-(5-(p-tolyl)-1H-imidazol-2-yl)piperidin-1-yl)butan-1-one still hasn't dissolved, 4 g of the respective solvent was added (resulting in a composition comprising 5 weight % of a compound of formula (I)), and again gentle agitated for an additional hour at about 50° C.
If 2-methyl-1-(2-(5-(p-tolyl)-1H-imidazol-2-yl)piperidin-1-yl)butan-1-one has dissolved, the vial was removed from the heat and was allowed to cool to room temperature. If no precipitation was observed the vials haven been placed in the fridge (about 4° C.) over night.
If 2-methyl-1-(2-(5-(p-tolyl)-1H-imidazol-2-yl)piperidin-1-yl)butan-1-one still has not dissolved, the procedure above has been repeated, starting with 0.05 g of 2-methyl-1-(2-(5-(p-tolyl)-1H-imidazol-2-yl)piperidin-1-yl)butan-1-one and 0.95 g of the respective solvent as indicated in Table 1 below. If still not dissolved, 1 g of the respective solvent was added (resulting in a composition comprising 2.5 weight % of a compound of formula (I))). If still not dissolved further solvent was added.

[2] = Stability of the solutions over time at different temperature (Example B); format: physicochemical
Protocol: The compound of Formula 1 was 2-methyl-1-(2-(5-(p-tolyl)-1H-imidazol-2-yl)piperidin-1-yl)butan-1-one (hereinafter “the compound”). The testing procedure with a number of different solvents was as follows: • 1. To 0.4 g compound was added 1.6 g solvent. This corresponds to a 20% solution. • 2. This mixture was warmed to 50° C. and agitated for 1 hour. • 3. If the compound dissolved, the solution was allowed to cool to room temperature, and then if it remained clear, it was stored overnight at 4° C. • 4. If crystals had developed, a further 2 g solvent was added (this now corresponding to a 10% solution) and step 2 were performed. • 5. The observations and actions of step 3 were performed. • 6. If the 10% combination of step 4 was not a solution, a further 4 g solvent was added (this now corresponding to a 5% solution), and step 2 were performed. • 7. The observations and actions of step 3 were performed. If crystals had developed, any such solvent was considered unsuitable Any solvent in which the compound was not crystallising at a 20 weight % solution, the testing procedure was repeated with a higher concentration as follows: • 1. To 1 g compound was added 1 g solvent. This corresponds to a 50% solution. • 2. This mixture was warmed to 50° C. and agitated for 1 hour. • 3. If the compound dissolved, the solution was allowed to cool to room temperature, and then if it remained clear, it was stored overnight at 4° C. • 4. If crystals had developed, a further 0.5 g solvent was added (this now corresponding to a 40% solution) and step 2 were performed. • 5. The observations and actions of step 3 were performed. • 6. If the 40% combination of step 4 was not a solution, a further 0.83 g solvent was added (this now corresponding to a 30% solution), and step 2 were performed. • 7. The observations and actions of step 3 were performed.

in the fridge (precipitation) ([1]; solvent Butyl lactate, 10% solution): no crystals observed | solubility @ RT ([1]; solvent Butyl lactate, dissolved at about 50° C., cooled to room temperature): 10% | in the fridge (precipitation) ([1]; solvent Ethanol abs., 20% solution): no crystals observed | solubility @ RT ([1]; solvent Ethanol abs., dissolved at about 50° C., cooled to room temperature): 20% | in the fridge (precipitation) ([1]; solvent Ethyl lactate, 10% solution): no crystals observed | solubility @ RT ([1]; solvent Ethyl lactate, dissolved at about 50° C., cooled to room temperature): 10% | in the fridge (precipitation) ([1]; solvent Isopropyl alcohol, 10% solution): no crystals observed | solubility @ RT ([1]; solvent Isopropyl alcohol, dissolved at about 50° C., cooled to room temperature): 10% | in the fridge (precipitation) ([1]; solvent Isopropylidene glycerol, 10% solution): no crystals observed | solubility @ RT ([1]; solvent Isopropylidene glycerol, dissolved at about 50° C., cooled to room temperature): 10% | in the fridge (precipitation) ([1]; solvent L-Lactic acid, purity 86.7 weight %, 20% solution): no crystals observed | solubility @ RT ([1]; solvent L-Lactic acid, purity 86.7 weight %, dissolved at about 50° C., cooled to room temperature): 20% | in the fridge (precipitation) ([1]; solvent Propylene glycol, 2.5% solution): no crystals observed | solubility @ RT ([1]; solvent Propylene glycol, dissolved at about 50° C., cooled to room temperature): 2.5% | in the fridge (precipitation) ([1]; solvent Triacetin, 1% solution): no crystals observed | solubility @ RT ([1]; solvent Triacetin, dissolved at about 50° C., cooled to room temperature): 1% | in the fridge (precipitation) ([1]; solvent Triethyl citrate, 2.5% solution): no crystals observed | solubility @ RT ([1]; solvent Triethyl citrate, dissolved at about 50° C., cooled to room temperature): 2.5% | solubility @ RT ([1]; solvent Water dest.): <1% (not soluble) | in the fridge (precipitation) ([1]; solvent dl-Lactic acid, purity 88 weight %, 20% solution): no crystals observed | solubility @ RT ([1]; solvent dl-Lactic acid, purity 88 weight %, dissolved at about 50° C., cooled to room temperature): 20% | stability of a solution, weight % of compound, @ 4° C. Overnight ([2]; solvent Butyl lactate): 20% weight % | stability of a solution, weight % of compound, @ 4° C. Overnight ([2]; solvent Ethanol abs.): 30% weight % | stability of a solution, weight % of compound, @ 4° C. Overnight ([2]; solvent Ethyl lactate): 10% weight % | stability of a solution, weight % of compound, @ 4° C. Overnight ([2]; solvent Isopropyl alcohol): 10% weight % | stability of a solution, weight % of compound, @ 4° C. Overnight ([2]; solvent Isopropylidene glycerol): 10% weight % | stability of a solution, weight % of compound, @ 4° C. Overnight ([2]; solvent L-Lactic acid, purity 86.7 weight %): 50% weight % | stability of a solution, weight % of compound, @ 4° C. Overnight ([2]; solvent dl-Lactic acid, purity 88 weight %): 50% weight %
SMILES: CCC(C)C(=O)N1CCCCC1c1ncc(-c2ccc(C)cc2)[nH]1 (stereo not shown) [2-methyl-1-(2-(5-(p-tolyl)-1H-imidazol-2-yl)piperidin-1-yl)butan-1-one]
